Experimental data published in publication PMC4744035, “In Vivo, In Vitro, and In Silico Characterization of Peptoids as Antimicrobial Agents” (PLoS ONE, 2016).
In brackets after ≈: the same amount, converted by molar mass. Where two headings read alike, the source gives them in different places. Numbered stars: 1 amine (or outer) side, 2 acyl side, 3 side chain; on linkers, the order of the positions; unused ones are H or OH. Square brackets hold non-standard residues; d marks the D form. Peptide text beside a SMILES is read from it. X2 = C[C@@H](c1cccc2ccccc12)N(CC(=O)[*:2])[*:1]; Nspe = C[C@H](NCC(=O)O)c1ccccc1; Nlys = NCCCCNCC(=O)O

What was measured:
Test in all cases: microbe, parasite or virus in culture
[1] = system: P. aeruginosa LES400 (MDR)
Description: (§1) The MICs of test agents were measured using a modified broth micro-dilution method in Difco Mueller Hinton medium, on a panel of bacterial pathogens that were both susceptible and resistant to common antibiotics (S1 File). Briefly, serial dilutions were performed in 0.01% acetic acid containing 0.2% bovine serum albumin at 10-fold the desired final concentration. Ten μL of the 10-fold concentrated test reagents were added to each well of a 96-well polypropylene microtitre plate containing 90 μL of Mueller Hinton media per well. Bacteria were added to the plate from an overnight culture at a final concentration of 2–7 x 10^5 CFU/mL and incubated overnight at 37°C. The MIC is defined as the concentration at which no growth was observed.
(§2) Screening of peptoid antimicrobial activity against a panel of multidrug resistant superbugs was done according to the protocol described in the manuscript. The bacterial strains used in this panel included; P. aeruginosa PAO1 strain H103 [1], P. maltophilia ATCC#13637, S. aureus ATCC#25923 [1], E. faecalis ATCC#29212 [2], and E. cloacae 218R, constitutively expressing Class C chromosomal β-lactamase, were from the Hancock lab strains collection. An MRSA clinical isolate was kindly provided by Anthony Chow (Vancouver General Hospital, Vancouver, Canada). Two Klebsiella pneumoniae and two E. coli clinical isolates expressing extended spectrum β-lactamases (ESBL) were kindly provided by George Zhanel (Health Sciences Centre, Winnipeg, Canada). Vancomycin-resistant clinical isolates of Enterococcus faecalis and E. faecium were obtained from Ana M. Paccagnella (BC Centre for Disease Control, Vancouver, Canada). Three clinical isolates (#9, #198 and #213) of multi-drug resistant P. aeruginosa, were kindly provided by Carlos Kiffer (University of São Paulo, Brazil). […] Three P. aeruginosa clinical isolates of the Liverpool epidemic strain (LES) (H1027, H1030 and LES400) were all kindly provided by Craig Winstanley (University of Liverpool, UK). […] All tested bacterial strains were categorized as biohazard level 2 pathogens.

S. aureus C623 (MRSA) = system: S. aureus C623 (MRSA)
Description: as §1, §2

[2] = system: P. aeruginosa H103 (wild type)
Description: as §1, §2

P. maltophilia ATCC13637 = conditions: ATCC13637
Description: as §1, §2

[3] = system: K. pneumonia 61962 (ESBL)
Description: as §1, §2

E. coli 63103 (ESBL) = system: E. coli 63103 (ESBL)
Description: as §1, §2

E. faecalis ATCC29212 = conditions: ATCC29212
Description: as §1, §2

E. coli 64771 (ESBL) = system: E. coli 64771 (ESBL)
Description: as §1, §2

E. faecium mic80 (VRE) = system: E. faecium mic80 (VRE)
Description: as §1, §2

E. faecalis W61950 (VRE) = system: E. faecalis W61950 (VRE)
Description: as §1, §2

E. faecalis F43559 (VRE) = system: E. faecalis F43559 (VRE)
Description: as §1, §2

S. aureus ATCC25923 = conditions: ATCC25923
Description: as §1, §2

P. aeruginosa 213 (MDR) = system: P. aeruginosa 213 (MDR)
Description: as §1, §2

[4] = system: K. pneumonia 63575 (ESBL)
Description: as §1, §2

E. faecium T62764 (VRE) = system: E. faecium T62764 (VRE)
Description: as §1, §2

P. aeruginosa 9 (MDR) = system: P. aeruginosa 9 (MDR)
Description: as §1, §2

[5] = system: P. aeruginosa H1027 (MDR)
Description: as §1, §2

P. aeruginosa 198 (MDR) = system: P. aeruginosa 198 (MDR)
Description: as §1, §2

[6] = system: E. cloacae 218R Class C β-lactamase
Description: as §1, §2

[7] = system: P. aeruginosa H1030 (MDR)
Description: as §1, §2

Work on C[C@@H](c1ccccc1)N(CC(=O)N(CCCCN)CC(=O)N(CC(=O)N(CC(=O)N(CCCCN)CC(=O)N(CC(=O)N(CC(=O)N(CCCCN)CC(=O)N(CC(=O)N(CC(N)=O)[C@@H](C)c1cccc2ccccc12)[C@@H](C)c1ccccc1)[C@@H](C)c1ccccc1)[C@@H](C)c1ccccc1)[C@@H](C)c1cccc2ccccc12)[C@@H](C)c1ccccc1)C(=O)CN(C(=O)CNCCCCN)[C@@H](C)c1ccccc1 [1-Nsna6,12, H-(NLys-Nspe-Nspe-NLys-Nspe-Nsna)2-NH2] (H-[Nlys][Nspe][Nspe][Nlys][Nspe][X2][Nlys][Nspe][Nspe][Nlys][Nspe][X2]-NH2) yielded an MIC ([1]; LES400 (MDR)) of 8 µg/mL (≈ 4.17 µM), an MIC (S. aureus C623 (MRSA); C623) of 4 µg/mL (≈ 2.08 µM) and an MIC ([2]; H103 (wild type)) of 4 µg/mL (≈ 2.08 µM). It also gave an MIC (P. maltophilia ATCC13637) of 1 µg/mL (≈ 0.521 µM), an MIC [3] of 64 µg/mL (≈ 33.3 µM) and an MIC (E. coli 63103 (ESBL); 63103 (ESBL)) of 16 µg/mL (≈ 8.34 µM). It also gave an MIC (E. faecalis ATCC29212) of 4 µg/mL (≈ 2.08 µM), an MIC (E. coli 64771 (ESBL); 64771 (ESBL)) of 8 µg/mL (≈ 4.17 µM) and an MIC (E. faecium mic80 (VRE); mic80 (VRE)) of 4 µg/mL (≈ 2.08 µM). For the same compound, the MIC (E. faecalis W61950 (VRE); W61950 (VRE)) was 16 µg/mL (≈ 8.34 µM), the MIC (E. faecalis F43559 (VRE); F43559 (VRE)) was 8 µg/mL (≈ 4.17 µM) and the MIC (S. aureus ATCC25923) was 4 µg/mL (≈ 2.08 µM). For the same compound, the MIC (P. aeruginosa 213 (MDR); 213 (MDR)) was 8 µg/mL (≈ 4.17 µM), the MIC [4] was 32 µg/mL (≈ 16.7 µM) and the MIC (E. faecium T62764 (VRE); T62764 (VRE)) was 2 µg/mL (≈ 1.04 µM). It also gave an MIC (P. aeruginosa 9 (MDR); 9 (MDR)) of 128 µg/mL (≈ 66.7 µM), an MIC ([5]; H1027 (MDR)) of 2 µg/mL (≈ 1.04 µM) and an MIC (P. aeruginosa 198 (MDR); 198 (MDR)) of 16 µg/mL (≈ 8.34 µM). For the same compound, the MIC ([6]; 218R Class C β-lactamase) was 32 µg/mL (≈ 16.7 µM) and the MIC ([7]; P. aeruginosa H1030 (MDR)) was 32 µg/mL (≈ 16.7 µM).

NC[C@H]1O[C@H](O[C@H]2[C@H](O)[C@@H](O[C@H]3O[C@H](CO)[C@@H](O)[C@H](N)[C@H]3O)[C@H](N)C[C@@H]2N)[C@H](N)C[C@@H]1O [Tobramycin, reference compound] was tested, and the MIC ([1]; Pseudomonas aeruginosa) was 4 µg/mL (≈ 8.56 µM), the MIC (S. aureus C623 (MRSA); Staphylococcus aureus, MRSA) was greater than 128 µg/mL and the MIC ([2]; Pseudomonas aeruginosa) was 0.5 µg/mL (≈ 1.07 µM). It also gave an MIC (P. maltophilia ATCC13637; Stenotrophomonas maltophilia) of 4 µg/mL (≈ 8.56 µM), an MIC ([3]; Klebsiella pneumoniae) of 32 µg/mL (≈ 68.4 µM) and an MIC (E. coli 63103 (ESBL); Escherichia coli) of 64 µg/mL (≈ 137 µM). It also gave an MIC (E. faecalis ATCC29212; Enterococcus faecalis) of 16 µg/mL (≈ 34.2 µM), an MIC (E. coli 64771 (ESBL); Escherichia coli) of 128 µg/mL (≈ 274 µM) and an MIC (E. faecium mic80 (VRE); Enterococcus faecium, VRE) of 128 µg/mL (≈ 274 µM). The MIC (E. faecalis W61950 (VRE); Enterococcus faecalis, VRE) was greater than 128 µg/mL, the MIC (E. faecalis F43559 (VRE); Enterococcus faecalis, VRE) was 32 µg/mL (≈ 68.4 µM) and the MIC (S. aureus ATCC25923; Staphylococcus aureus) was 0.3 µg/mL (≈ 0.642 µM). The MIC (P. aeruginosa 213 (MDR); Pseudomonas aeruginosa) was greater than 128 µg/mL, the MIC ([4]; Klebsiella pneumoniae) was 16 µg/mL (≈ 34.2 µM) and the MIC (E. faecium T62764 (VRE); Enterococcus faecium, VRE) was greater than 128 µg/mL. For the same compound, the MIC (P. aeruginosa 9 (MDR); Pseudomonas aeruginosa) was greater than 128 µg/mL, the MIC ([5]; Pseudomonas aeruginosa) was 32 µg/mL (≈ 68.4 µM) and the MIC (P. aeruginosa 198 (MDR); Pseudomonas aeruginosa) was greater than 128 µg/mL. For the same compound, the MIC ([6]; Enterobacter cloacae) was 0.5 µg/mL (≈ 1.07 µM) and the MIC ([7]; Pseudomonas aeruginosa) was 8 µg/mL (≈ 17.1 µM).
